Assay results published in patent publication US5591758A, “Organic nitrates, processes for their preparation and their use in the treatment of cardiovascular diseases” (Laboratoires Hoechst, SA, priority 1991, dated 1997).
“And” between values parts separate entries of the source, which are not always exact repeats. Equal values may be shown once. Where a name gives a salt, the structure may show the parent alone.

Test system: anaesthetised dogs
Assay: Tachyphylaxis model on anaesthetised dogs (repeated i.d. administration)
Assay type: in vivo, dogs (labrador/harrier cross)
Parameters: Δdp/dt average / ΔBPs / ΔBPd / ΔLVEDP / ΔHR / ΔBPs average / ΔBPd average / ΔLVEDP average / ΔHR average: unit not given here
Details: for Δdp/dt / ΔBPd / ΔBPs / ΔHR / ΔLVEDP: single dog
Method: Comparison with isosorbide mononitrate (IS-5-MN).
The product (46) is tested in a tachyphylaxis model on anaesthetised dogs. IS-5-MN is used as reference substance.
8 dogs of each sex, weighing between 16 and 24 kg, are used. These dogs are the progeny of a labrador/harrier cross. Anaesthesia is induced with the aid of sodium pentobarbital (45 mg/kg i.v.) and maintained by i.v. perfusion (flow rate: 8 mg/kg/h). The animals are ventilated, with the aid of a "Bird Mark 7" respirator, using ambient air, and catheterised. […] The arterial blood gases are measured at regular intervals.
IS-5-MN is also dissolved in water and given i.d. in a dosage of 5 mg/kg in a volume of 10 ml/animal.
Three hours (in the case of IS-5-MN) or four hours (in the case of (46)) after the first administration, the compounds are readministered in the same dosage and by the same route. The haemodynamic parameter chosen for the study of the tachyphylaxis is the systolic blood pressure (BPs), insofar as this parameter is very sensitive to the administration of the compounds.

[1] = i.d., IS-5-MN 5 mg/kg, (46) 0.75 mg/kg
[2] = n = 4, 1st administration, 0.75 mg/kg i.d., 5 min
[3] = n = 4, 1st administration, 0.75 mg/kg i.d., 10 min
[4] = n = 4, 1st administration, 0.75 mg/kg i.d., 15 min
[5] = n = 4, 1st administration, 0.75 mg/kg i.d., 30 min
[6] = n = 4, 1st administration, 0.75 mg/kg i.d., 60 min
[7] = n = 4, 1st administration, 0.75 mg/kg i.d., 120 min
[8] = n = 4, 1st administration, 0.75 mg/kg i.d., 180 min
[9] = n = 4, 1st administration, 0.75 mg/kg i.d., 240 min
[10] = n = 4, 2nd administration, 0.75 mg/kg i.d., 5 min
[11] = n = 4, 2nd administration, 0.75 mg/kg i.d., 10 min
[12] = n = 4, 2nd administration, 0.75 mg/kg i.d., 15 min
[13] = n = 4, 2nd administration, 0.75 mg/kg i.d., 30 min
[14] = n = 4, 2nd administration, 0.75 mg/kg i.d., 60 min
[15] = n = 4, 2nd administration, 0.75 mg/kg i.d., 120 min
[16] = 1st administration, 0.75 mg/kg i.d., 5 min, monohydrochloride, 0.75 mg/kg
[17] = 1st administration, 0.75 mg/kg i.d., 10 min, monohydrochloride, 0.75 mg/kg
[18] = 1st administration, 0.75 mg/kg i.d., 15 min, monohydrochloride, 0.75 mg/kg
[19] = 1st administration, 0.75 mg/kg i.d., 30 min, monohydrochloride, 0.75 mg/kg
[20] = 1st administration, 0.75 mg/kg i.d., 60 min, monohydrochloride, 0.75 mg/kg
[21] = 1st administration, 0.75 mg/kg i.d., 120 min, monohydrochloride, 0.75 mg/kg
[22] = 1st administration, 0.75 mg/kg i.d., 180 min, monohydrochloride, 0.75 mg/kg
[23] = 1st administration, 0.75 mg/kg i.d., 240 min, monohydrochloride, 0.75 mg/kg
[24] = 2nd administration, 0.75 mg/kg i.d., 5 min
[25] = 2nd administration, 0.75 mg/kg i.d., 5 min, monohydrochloride, 0.75 mg/kg
[26] = 2nd administration, 0.75 mg/kg i.d., 10 min
[27] = 2nd administration, 0.75 mg/kg i.d., 10 min, monohydrochloride, 0.75 mg/kg
[28] = 2nd administration, 0.75 mg/kg i.d., 15 min, monohydrochloride, 0.75 mg/kg
[29] = 2nd administration, 0.75 mg/kg i.d., 30 min, monohydrochloride, 0.75 mg/kg
[30] = 2nd administration, 0.75 mg/kg i.d., 60 min, monohydrochloride, 0.75 mg/kg
[31] = 2nd administration, 0.75 mg/kg i.d., 120 min, monohydrochloride, 0.75 mg/kg

Structure (SMILES): O=C(CNC(=O)[C@@H]1CSCN1)N[C@H]1CO[C@H]2[C@@H]1OC[C@@H]2O[N+](=O)[O-] [Compound 46, 5-[[2-[[(4-L-Thiazolidinyl)carbonyl]amino]-1oxoethyl]amino]-5-deoxy-2-O-nitro-1,4:3,6-dianhydro-L-iditol monohydrochloride]
- fall in the BPs, first administration, on average (0.75 mg/kg i.d.): -30 mmHg
- period of action (compared with IS-5-MN, first administration): longer
- development of tachyphylaxis after repeated administration (dogs, two i.d. administrations): absence of the development of tachyphylaxis
- maximum fall in the BP after second administration [1]: -33 mmHg
- time of maximum effect on BPs after first administration [1]: 60 min
- time of maximum fall in the BP after second administration [1]: 60 min
- ΔBPd average [2]: -4
- ΔBPs average [2]: -5
- ΔHR average [2]: -1
- ΔLVEDP average [2]: -0
- Δdp/dt average [2]: 0
- ΔBPd average [3]: -11
- ΔBPs average [3]: -18
- ΔHR average [3]: -1
- ΔLVEDP average [3]: -2
- Δdp/dt average [3]: -100
- ΔBPd average [4]: -16
- ΔBPs average [4]: -26
- ΔHR average [4]: -1
- ΔLVEDP average [4]: -2
- Δdp/dt average [4]: -125
- ΔBPd average [5]: -20
- ΔBPs average [5]: -30
- ΔHR average [5]: -2
- ΔLVEDP average [5]: -2
- Δdp/dt average [5]: -150
- ΔBPd average [6]: -20
- ΔBPs average [6]: -33
- ΔHR average [6]: -8
- ΔLVEDP average [6]: -3
- Δdp/dt average [6]: -200
- ΔBPd average [7]: -20
- ΔBPs average [7]: -31
- ΔHR average [7]: -10
- ΔLVEDP average [7]: -4
- Δdp/dt average [7]: -250
- ΔBPd average [8]: -15
- ΔBPs average [8]: -24
- ΔHR average [8]: -6
- ΔLVEDP average [8]: -4
- Δdp/dt average [8]: -150
- ΔBPd average [9]: -7
- ΔBPs average [9]: -12
- ΔHR average [9]: 0
- ΔLVEDP average [9]: -4
- Δdp/dt average [9]: 25
- ΔBPd average [10]: -5
- ΔBPs average [10]: -6
- ΔHR average [10]: 0
- ΔLVEDP average [10]: 0
- Δdp/dt average [10]: -50
- ΔBPd average [11]: -6
- ΔBPs average [11]: -11
- ΔHR average [11]: 0
- ΔLVEDP average [11]: 0
- Δdp/dt average [11]: -75
- ΔBPd average [12]: -10
- ΔBPs average [12]: -18
- ΔHR average [12]: -1
- ΔLVEDP average [12]: 0
- Δdp/dt average [12]: -125
- ΔBPd average [13]: -15
- ΔBPs average [13]: -25
- ΔHR average [13]: -1
- ΔLVEDP average [13]: -1
- Δdp/dt average [13]: -225
- ΔBPd average [14]: -19
- ΔBPs average [14]: -33
- ΔHR average [14]: -4
- ΔLVEDP average [14]: -2
- Δdp/dt average [14]: 350
- ΔBPd average [15]: -15
- ΔBPs average [15]: -26
- ΔHR average [15]: -2
- ΔLVEDP average [15]: -2
- Δdp/dt average [15]: -275
- Δdp/dt (1st administration, 0.75 mg/kg i.d., 5 min): 0
- ΔBPd [16]: -5 and 0
- ΔBPs [16]: -5 and -10 and 0
- ΔHR [16]: 0 and -5
- ΔLVEDP [16]: 0 and -1
- Δdp/dt (1st administration, 0.75 mg/kg i.d., 10 min): -100
- ΔBPd [17]: -10 and -15
- ΔBPs [17]: -15 and -20
- ΔHR [17]: 0 and -5
- ΔLVEDP [17]: -2 and 0 and -3
- ΔBPd [18]: -15 and -20
- ΔBPs [18]: -25 and -20 and -35
- ΔHR [18]: 0 and -5
- ΔLVEDP [18]: -3 and -2 and 1
- Δdp/dt [18]: -100 and -200
- ΔBPd [19]: -20 and -15 and -25
- ΔBPs [19]: -30 and -20 and -40
- ΔHR [19]: -5 and 0
- ΔLVEDP [19]: -4 and -2 and 1
- Δdp/dt [19]: -100 and -200
- ΔBPd [20]: -20 and -25 and -10
- ΔBPs [20]: -30 and -35 and -15 and -50
- ΔHR [20]: -10 and -5
- ΔLVEDP [20]: -3 and -2 and -4
- Δdp/dt [20]: -200 and -300 and 0
- ΔBPd [21]: -20 and -25 and -10
- ΔBPs [21]: -30 and -35 and -15 and -45
- ΔHR [21]: -15 and 5
- ΔLVEDP [21]: -2 and -6 and -4
- Δdp/dt [21]: -200 and -300
- ΔBPd [22]: -20 and -5 and -15
- ΔBPs [22]: -25 and -30 and -10
- ΔHR [22]: -10 and -15 and 10
- ΔLVEDP [22]: -3 and -2 and -7 and -4
- Δdp/dt [22]: -200 and -300 and -100 and 0
- ΔBPd [23]: -10 and -20 and 0
- ΔBPs [23]: -15 and -20 and 0
- ΔHR [23]: -5 and -10 and 0 and 15
- ΔLVEDP [23]: -4 and -3 and -7
- Δdp/dt [23]: -100 and 0 and 300
- ΔBPd [24]: -5
- ΔHR [24]: 0
- ΔBPs [25]: -5 and -10
- ΔLVEDP [25]: 0 and 1
- Δdp/dt [25]: 0 and -100
- ΔHR [26]: 0
- ΔLVEDP [26]: 0
- ΔBPd [27]: -10 and -5
- ΔBPs [27]: -15 and -5 and -10
- Δdp/dt [27]: 0 and -100 and -200
- ΔBPd [28]: -15 and -10 and -5
- ΔBPs [28]: -20 and -15
- ΔHR [28]: -5 and 0
- ΔLVEDP [28]: -1 and 2 and 0
- Δdp/dt [28]: -100 and 0 and -300
- ΔBPd [29]: -15 and -10 and -25
- ΔBPs [29]: -25 and -20 and -35
- ΔHR [29]: 0 and -5
- ΔLVEDP [29]: -1 and 0 and -2
- Δdp/dt [29]: -100 and -600
- ΔBPd [30]: -15 and -10 and -35
- ΔBPs [30]: -30 and -20 and -50
- ΔHR [30]: -5 and -10 and 0
- ΔLVEDP [30]: -1 and -3
- Δdp/dt [30]: -100 and -200 and -900
- ΔBPd [31]: -10 and -15 and -25
- ΔBPs [31]: -20 and -30 and -35
- ΔHR [31]: 0 and -15 and 5
- ΔLVEDP [31]: -1 and -2 and -3
- Δdp/dt [31]: -100 and -200 and -600
